Test results: ChEMBL document CHEMBL5532657, “Serendipitous discovery of Class I HDAC inhibitors from rational design of molecular glue degraders targeting HDAC” (Eur J Med Chem, 2024)
Active and inactive are the calls of the source. The rule behind the calls is not given here.

Tests used:
RS4-11 [1] = test: Induction of apoptosis in human RS4-11 cells assessed as upregulation of p21 at 1 to 10 uM; format: functional, cell-based; details: dose 1-10 µM
RS4-11 [2] = test: Induction of apoptosis in human RS4-11 cells assessed as upregulation of Bax level; format: functional, cell-based; details: dose 1-10 µM
Histone deacetylase 7 = target: T1, Histone deacetylase 7 (Homo sapiens, UniProt Q8WUI4); test: Inhibition of HDAC7 in human HeLa cells nuclear extract using BocLys(acetyl)-AMC as substrate incubated for 1 hr by fluorescence plate reader analysis; format: subcellular, Nucleus
T1 sequence (Q8WUI4 whole entry): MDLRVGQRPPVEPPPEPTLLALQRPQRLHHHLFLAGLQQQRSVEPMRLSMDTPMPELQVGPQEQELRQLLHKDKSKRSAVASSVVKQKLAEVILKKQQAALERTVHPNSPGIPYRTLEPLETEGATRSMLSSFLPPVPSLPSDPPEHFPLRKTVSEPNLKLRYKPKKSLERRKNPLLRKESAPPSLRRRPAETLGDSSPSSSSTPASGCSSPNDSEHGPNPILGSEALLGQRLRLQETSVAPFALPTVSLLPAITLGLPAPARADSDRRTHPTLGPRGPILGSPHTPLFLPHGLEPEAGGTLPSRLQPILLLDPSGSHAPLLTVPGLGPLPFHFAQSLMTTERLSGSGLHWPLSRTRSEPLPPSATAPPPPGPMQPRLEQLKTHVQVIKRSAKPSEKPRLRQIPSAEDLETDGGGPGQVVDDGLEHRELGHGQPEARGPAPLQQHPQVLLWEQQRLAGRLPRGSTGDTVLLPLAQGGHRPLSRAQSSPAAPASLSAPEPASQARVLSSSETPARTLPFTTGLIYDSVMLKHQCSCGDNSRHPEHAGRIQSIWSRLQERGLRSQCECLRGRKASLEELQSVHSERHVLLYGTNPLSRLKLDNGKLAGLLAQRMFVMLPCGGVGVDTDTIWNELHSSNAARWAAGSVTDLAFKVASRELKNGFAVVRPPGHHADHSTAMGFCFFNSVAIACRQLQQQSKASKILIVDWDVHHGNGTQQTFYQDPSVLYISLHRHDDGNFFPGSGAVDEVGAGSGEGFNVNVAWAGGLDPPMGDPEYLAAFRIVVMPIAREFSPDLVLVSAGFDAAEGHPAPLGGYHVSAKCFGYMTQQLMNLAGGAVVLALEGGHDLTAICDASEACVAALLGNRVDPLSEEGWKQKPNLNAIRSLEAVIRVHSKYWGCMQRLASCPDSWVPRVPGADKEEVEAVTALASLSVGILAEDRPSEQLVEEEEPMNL

RPMI-8226 = test: Antiproliferative activity against human RPMI-8226 cells assessed as cell growth inhibition incubated for 48 hrs by CCK-8 assay; format: functional, cell-based; details: RPMI-8226, 48 h
Histone deacetylase 1 = Histone deacetylase 1 (Homo sapiens, UniProt Q13547); test: Binding affinity to HDAC1 (unknown origin)
Chain of Histone deacetylase 1 (Q13547 whole entry): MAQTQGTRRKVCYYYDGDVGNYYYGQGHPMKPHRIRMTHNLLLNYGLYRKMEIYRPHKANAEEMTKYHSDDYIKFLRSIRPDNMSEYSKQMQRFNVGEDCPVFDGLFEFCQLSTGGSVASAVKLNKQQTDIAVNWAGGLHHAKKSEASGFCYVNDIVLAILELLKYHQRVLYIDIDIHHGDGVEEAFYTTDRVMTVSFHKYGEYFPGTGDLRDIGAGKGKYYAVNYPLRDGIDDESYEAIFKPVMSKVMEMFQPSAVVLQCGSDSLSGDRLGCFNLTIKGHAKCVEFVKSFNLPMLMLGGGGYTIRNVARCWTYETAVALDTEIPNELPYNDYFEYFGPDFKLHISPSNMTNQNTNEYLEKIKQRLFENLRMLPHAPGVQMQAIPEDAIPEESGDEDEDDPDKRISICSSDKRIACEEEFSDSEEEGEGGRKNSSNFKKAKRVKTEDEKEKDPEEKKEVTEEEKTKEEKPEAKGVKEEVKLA

RS4-11 [3] = test: Antiproliferative activity against human RS4-11 cells assessed as cell growth inhibition incubated for 48 hrs by CCK-8 assay; format: functional, cell-based; details: RS4-11, 48 h
U-266 = test: Antiproliferative activity against human U-266 cells assessed as cell growth inhibition at 5 uM incubated for 48 hrs by CCK-8 assay; format: functional, cell-based
Histone deacetylase 4 = Histone deacetylase 4 (Homo sapiens, UniProt P56524); test: Inhibition of HDAC4 in human HeLa cells nuclear extract using BocLys(acetyl)-AMC as substrate incubated for 1 hr by fluorescence plate reader analysis; format: subcellular, Nucleus
Chain of Histone deacetylase 4 (P56524 whole entry): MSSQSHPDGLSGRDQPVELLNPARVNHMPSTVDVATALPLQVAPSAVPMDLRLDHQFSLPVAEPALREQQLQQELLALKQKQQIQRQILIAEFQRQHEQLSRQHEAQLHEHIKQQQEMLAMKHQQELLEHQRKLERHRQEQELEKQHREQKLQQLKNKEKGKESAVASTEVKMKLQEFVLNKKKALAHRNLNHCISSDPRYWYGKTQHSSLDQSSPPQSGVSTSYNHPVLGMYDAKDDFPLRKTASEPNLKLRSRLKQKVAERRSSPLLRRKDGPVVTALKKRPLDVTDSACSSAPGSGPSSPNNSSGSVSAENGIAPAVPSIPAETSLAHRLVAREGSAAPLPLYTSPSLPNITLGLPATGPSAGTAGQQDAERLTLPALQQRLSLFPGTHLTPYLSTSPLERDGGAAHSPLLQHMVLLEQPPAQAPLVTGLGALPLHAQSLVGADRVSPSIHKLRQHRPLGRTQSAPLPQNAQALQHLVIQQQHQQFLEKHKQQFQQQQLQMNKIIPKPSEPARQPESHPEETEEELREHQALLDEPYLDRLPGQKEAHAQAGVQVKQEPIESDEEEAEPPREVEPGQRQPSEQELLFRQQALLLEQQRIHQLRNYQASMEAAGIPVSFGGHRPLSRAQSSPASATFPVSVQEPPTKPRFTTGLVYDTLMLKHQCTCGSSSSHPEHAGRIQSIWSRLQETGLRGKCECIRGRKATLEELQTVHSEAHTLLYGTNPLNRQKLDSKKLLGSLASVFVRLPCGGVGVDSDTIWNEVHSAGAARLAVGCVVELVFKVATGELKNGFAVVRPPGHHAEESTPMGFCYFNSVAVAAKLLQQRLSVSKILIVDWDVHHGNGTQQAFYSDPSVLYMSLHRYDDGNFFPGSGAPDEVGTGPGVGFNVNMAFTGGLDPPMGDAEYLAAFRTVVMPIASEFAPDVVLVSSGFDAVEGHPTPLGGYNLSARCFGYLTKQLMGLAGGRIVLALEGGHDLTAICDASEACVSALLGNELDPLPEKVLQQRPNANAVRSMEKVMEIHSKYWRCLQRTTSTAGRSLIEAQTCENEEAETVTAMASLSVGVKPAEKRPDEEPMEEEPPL

[4] = target: Histone deacetylase (Homo sapiens) (UniProt Q13547+O15379+Q9UBN7+Q92769+Q9UQL6+Q8WUI4+Q9BY41+Q96DB2+P56524+Q9UKV0+Q969S8); test: Inhibition of HDAC in human RS4-11 cells assessed as upregulation of histone H3 acetylation by Western blot assay; format: cell-based
Histone deacetylase 2 = Histone deacetylase 2 (Homo sapiens, UniProt Q92769); test: Inhibition of HDAC2 in human HeLa cells nuclear extract using BocLys(acetyl)-AMC as substrate incubated for 1 hr by fluorescence plate reader analysis; format: subcellular, Nucleus
Chain of Histone deacetylase 2 (Q92769 whole entry): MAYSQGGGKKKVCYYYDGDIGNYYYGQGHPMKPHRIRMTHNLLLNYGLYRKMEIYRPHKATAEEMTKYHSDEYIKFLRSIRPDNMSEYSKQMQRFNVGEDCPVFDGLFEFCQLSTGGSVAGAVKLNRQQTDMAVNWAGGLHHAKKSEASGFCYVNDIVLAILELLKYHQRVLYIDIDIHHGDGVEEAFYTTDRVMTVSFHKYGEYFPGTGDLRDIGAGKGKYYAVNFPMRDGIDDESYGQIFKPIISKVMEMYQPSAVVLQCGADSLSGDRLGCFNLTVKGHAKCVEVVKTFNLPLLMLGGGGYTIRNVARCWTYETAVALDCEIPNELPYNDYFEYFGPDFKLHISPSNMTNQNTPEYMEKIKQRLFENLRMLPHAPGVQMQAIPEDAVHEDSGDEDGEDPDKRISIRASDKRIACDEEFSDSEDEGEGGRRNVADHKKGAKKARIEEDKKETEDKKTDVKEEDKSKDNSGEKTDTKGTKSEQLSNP

[5] = target: T2, Protein deacetylase HDAC6 (Homo sapiens) (UniProt Q9UBN7); test: Induction of HDAC6 degradation in human RS4-11 cells at 0.5 to 10 uM incubated for 12 hrs by Western blotting analysis; format: cell-based; details: dose 0.5-10 µM
T2 sequence (whole entry): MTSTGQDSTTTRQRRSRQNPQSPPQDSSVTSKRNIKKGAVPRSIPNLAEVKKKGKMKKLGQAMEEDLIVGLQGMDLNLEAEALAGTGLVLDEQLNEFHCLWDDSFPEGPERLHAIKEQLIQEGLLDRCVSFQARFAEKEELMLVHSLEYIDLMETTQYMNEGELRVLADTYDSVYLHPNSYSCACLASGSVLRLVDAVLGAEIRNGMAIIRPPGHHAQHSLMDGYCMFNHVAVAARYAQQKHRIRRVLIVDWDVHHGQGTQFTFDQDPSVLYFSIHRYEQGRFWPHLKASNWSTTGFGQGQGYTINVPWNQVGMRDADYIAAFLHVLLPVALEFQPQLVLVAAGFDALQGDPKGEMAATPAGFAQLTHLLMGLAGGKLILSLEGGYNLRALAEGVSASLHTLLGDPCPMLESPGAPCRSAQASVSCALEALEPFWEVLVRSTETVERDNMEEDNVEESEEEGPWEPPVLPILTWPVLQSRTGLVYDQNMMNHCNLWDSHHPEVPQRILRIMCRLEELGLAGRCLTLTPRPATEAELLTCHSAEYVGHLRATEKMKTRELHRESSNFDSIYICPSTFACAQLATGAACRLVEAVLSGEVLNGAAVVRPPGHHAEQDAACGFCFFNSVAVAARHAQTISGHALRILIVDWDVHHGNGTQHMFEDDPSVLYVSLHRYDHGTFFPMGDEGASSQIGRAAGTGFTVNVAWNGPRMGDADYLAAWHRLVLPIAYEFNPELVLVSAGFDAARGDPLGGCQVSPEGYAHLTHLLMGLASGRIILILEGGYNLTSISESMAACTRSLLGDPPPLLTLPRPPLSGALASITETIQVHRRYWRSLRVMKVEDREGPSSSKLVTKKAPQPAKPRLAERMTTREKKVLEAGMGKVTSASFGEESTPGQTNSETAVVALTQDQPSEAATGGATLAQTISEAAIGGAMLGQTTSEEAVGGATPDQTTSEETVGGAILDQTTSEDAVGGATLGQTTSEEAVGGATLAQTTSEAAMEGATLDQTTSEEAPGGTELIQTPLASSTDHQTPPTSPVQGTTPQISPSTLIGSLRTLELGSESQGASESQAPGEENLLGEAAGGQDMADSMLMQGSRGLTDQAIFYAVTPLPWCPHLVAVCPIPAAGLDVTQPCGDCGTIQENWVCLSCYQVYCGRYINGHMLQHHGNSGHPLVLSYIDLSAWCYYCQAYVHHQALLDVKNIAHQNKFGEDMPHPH

HeLa = test: Antiproliferative activity against human HeLa cells assessed as cell growth inhibition at 5 uM incubated for 48 hrs by CCK-8 assay; format: functional, cell-based
RS4-11 [6] = test: Induction of apoptosis in human RS4-11 cells assessed as downregulation of Bcl-2 level; format: functional, cell-based; details: dose 1-10 µM

IC50 (Histone deacetylase 7) [nM]	IC50 (RPMI-8226) [nM]	Kd (Histone deacetylase 1) [nM]	IC50 (RS4-11 [3]) [nM]	IC50 (Histone deacetylase 4) [nM]	inhibition [4]	IC50 (Histone deacetylase 2) [nM]	Activity [5]	Structure (SMILES)	Activity (RS4-11 [1])	Activity (RS4-11 [2])	Activity (U-266)	Activity (HeLa)	Activity (RS4-11 [6])
> 2000	5750	41300	1570	> 2000	Active	379	inactive	Nc1ccccc1NC(=O)c1ccc(CNc2cccc3c2C(=O)N(C2CCC(=O)NC2=O)C3=O)cc1 (stereo unspecified)	Active	Dose-Dependent Effect	Active	inactive	Dose-Dependent Effect
> 2000	3720	16700	2110	> 2000	Active	434	inactive	Nc1cc(F)ccc1NC(=O)c1ccc(CNc2cccc3c2C(=O)N(C2CCC(=O)NC2=O)C3=O)cc1 (stereo unspecified)	Active	Dose-Dependent Effect	Active	inactive	Dose-Dependent Effect
